In patent publication US12622968B2, “Formulation for oral delivery of proteins, peptides and small molecules with poor permeability” (R.P. Scherer Technologies, LLC, priority 2019, dated 2026):
Several values for one entry are separate records, joined by “and”; a condition that tells them apart may be missing. Equal values may be shown once. Read-outs that look alike come from different tables or passages of the source.

Assay: Single dose oral capsule pharmacokinetics of BHV-3500 in dogs (plasma LC-MS/MS)
Format: in vivo, beagle dogs
Conditions: for AUC(0-t): read-out: AUC0-4 hr; for concentration at 0.5 h: 0.5 h post-dose
Protocol: The pharmacokinetics (PK) of BHV-3500 after a single oral capsule of BHV-3500 in dogs were investigated.
After each dose, blood samples (approximately 3 mL from the jugular vein) for determination of plasma levels of BHV-3500 were obtained from of each dog at six time points (pre-dose; 15, 30, and 60 minutes and 2 and 4 hours post-dose. EDTA was used as the anticoagulant. Plasma samples were frozen at approximately −70′C until analyzed.
For the determination of BHV-3500 in plasma, a 50 μL aliquot from each sample was transferred into the appropriate well of a 96-well plate to which 10 μL of 50% acetonitrile (ACN) in water was added, followed by 250 μL of internal standard solution (10 ng/mL BHV-3500-d8 in ACN). After sealing the plate and vortexing for approximately 5 minutes, the plate was centrifuged at 4,000 rpm for 10 minutes at 4±4° C. A portion (100 μL) of the resulting supernatant was transferred to into the appropriate well (containing 300 μL 0.15% formic acid in water) of another 96-well plate. This plate was sealed and its contents mixed prior to instrumental analysis.
Freshly prepared BHV-3500 standard curves and QC samples were analyzed along with the study samples. Instrument calibrators were prepared by adding 10 μL of a stock BHV-3500 solution to 50 μL of blank dog plasma. Blank dog plasma was sourced from BioIVT (Hicksville, NY) and stored frozen at −20° C. Nominal calibrator concentrations ranged from 2.00 to 200 ng/mL. QC samples were prepared at concentrations of 6.00, 50.0 and 150 ng/mL. Calibrators and QC samples were processed for analysis following the extraction procedure described above.
Calibrator, QC and study samples were analyzed under LC-S/MS instrument conditions detailed in Table 7.
Calibration curves were calculated from the linear regression (weighting factor of 1/x2) of the analyte to internal standard peak area ratios versus the analyte concentrations. Concentrations of analyte in the samples were determined using the peak area ratios and the regression parameters of the calibration curves.
Individual animal plasma BHV-3500 concentration data at scheduled (nominal) sampling times were analyzed using the non-compartmental model f r extravascular administration with Phoenix WinNonlin software (Version 8.1; Certara, Princeton, NJ).
Elimination rate constant values (λz) were calculated by log-linear regression on data points of the terminal phase (using Phoenix WinNonlin's Best Fit Lambda Z Calculation Method option) when allowed by the data; the plasma elimination half-life (t1/2) was calculated as ln(2)/λz. Area under the plasma concentration-time curve values from time zero to the concentration at the 4 hour time point (AUC0-4 hr) were calculated by the linear-up/log-down trapezoidal rule.
Nominal dose levels were used for PK analysis. The PK parameters listed below were evaluated (as applicable and when allowed by the data). • Elimination half-life (t1/2) • Time of occurrence of maximum plasma concentration (Tmax) • Maximum plasma concentration (Cmax) • Area under plasma concentration-time curve [0 to the 4 hour time point; AUC0-4hr]

[1] = Group 6, oral capsule, 50 mg BHV-3500 in 25 mg DDM, individual dogs
[2] = female, beagle, dog, plasma, po, 20 mg, Group 3, oral capsule, 20 mg BHV-3500 in 25 mg DDM, average
[3] = female, beagle, dog, plasma, po, 20 mg, Group 3, oral capsule, 20 mg BHV-3500 in 25 mg DDM, individual dogs

With `Cc1cc(C[C@@H](NC(=O)N2CCC(c3cc4ccccc4[nH]c3=O)CC2)C(=O)N2CCN(C3CCN(C)CC3)CC2)cc2cn[nH]c12` [BHV-3500, (R)—N-(3-(7-methyl-1H indazol-5-yl)-1-(4-(1-methylpiperidin-4-yl)piperazin-1-yl)-1-oxopropan-2-yl)-4-(2-oxo-1,2 dihydroquinolin-3-yl)piperidine-1-carboxamide] the “BHV-3500 Concentration in Dog Plasma” value (Group 6, oral capsule, 50 mg BHV-3500 in 25 mg DDM, 2 h post-dose, individual dogs) was “BQL (BQL = below quantitation limit (2.0 ng/mL))”, the “BHV-3500 Concentration in Dog Plasma” value (Group 6, oral capsule, 50 mg BHV-3500 in 25 mg DDM, 4 h post-dose, individual dogs) was “BQL (BQL = below quantitation limit (2.0 ng/mL))” and the AUC0-4 hr [1] was 10.6 ng·h/mL and 24.0 ng·h/mL. For the same molecule, the Cmax [1] was 5.34 ng/mL and 2.42 ng/mL and 12.0 ng/mL, the Tmax [1] was 1 h and the concentration at 2 h (female, beagle, dog, plasma, oral, 20 mg, Group 2, 20 mg with Vehicle 6, 2 hours post-dose, read-out: mean plasma exposure) was 22 nM. It also gave a concentration at 2 h (female, beagle, dog, plasma, oral, 20 mg, Group 3, 20 mg with DDM, 2 hours post-dose, read-out: mean plasma exposure) of 29.5 nM, a concentration at 1 h (female, beagle, dog, plasma, oral, 50 mg, Group 5, 50 mg with Vehicle 6, 1 hour post-dose, read-out: mean plasma exposure) of 18 nM and a concentration at 2 h (female, beagle, dog, plasma, oral, 50 mg, Group 5, 50 mg with Vehicle 6, 2 hours post-dose, read-out: mean plasma exposure) of 63.3 nM. It also gave a concentration at 4 h (female, beagle, dog, plasma, oral, 50 mg, Group 6, 50 mg with DDM, 4 hours post-dose, read-out: mean plasma exposure) of 13.5 nM, a concentration at 1 h (female, beagle, dog, plasma, po, 20 mg, Group 2, oral capsule, 20 mg BHV-3500 in 900 mg vehicle of Formulation 2 (SEDDS excipients), 1 h post-dose, average, read-out: BHV-3500 Concentration in Dog Plasma) of 2.57 ng/mL and a concentration at 2 h (female, beagle, dog, plasma, po, 20 mg, Group 2, oral capsule, 20 mg BHV-3500 in 900 mg vehicle of Formulation 2 (SEDDS excipients), 2 h post-dose, average, read-out: BHV-3500 Concentration in Dog Plasma) of 14.2 ng/mL. The concentration at 4 h (female, beagle, dog, plasma, po, 20 mg, Group 2, oral capsule, 20 mg BHV-3500 in 900 mg vehicle of Formulation 2 (SEDDS excipients), 4 h post-dose, average, read-out: BHV-3500 Concentration in Dog Plasma) was 3.09 ng/mL, the AUC(0-t) (female, beagle, dog, plasma, po, 20 mg, Group 2, oral capsule, 20 mg BHV-3500 in 900 mg vehicle of Formulation 2 (SEDDS excipients), average) was 19.8 ng·h/mL and the Cmax (female, beagle, dog, plasma, po, 20 mg, Group 2, oral capsule, 20 mg BHV-3500 in 900 mg vehicle of Formulation 2 (SEDDS excipients), average, read-out: Cmax) was 14.2 ng/mL. For the same molecule, the AUC(0-t) (female, beagle, dog, plasma, po, 20 mg, Group 2, oral capsule, 20 mg BHV-3500 in 900 mg vehicle of Formulation 2 (SEDDS excipients), individual dogs) was 19.8 ng·h/mL, the Tmax (female, beagle, dog, plasma, po, 20 mg, Group 2, oral capsule, 20 mg BHV-3500 in 900 mg vehicle of Formulation 2 (SEDDS excipients), individual dogs, read-out: Tmax) was 2 h and the Tmax (female, beagle, dog, plasma, po, 20 mg, Group 2, oral capsule, 20 mg BHV-3500 in 900 mg vehicle of Formulation 2 (SEDDS excipients), median, read-out: Tmax) was 2 h. It also gave a concentration at 0.5 h [2] of 14 ng/mL, a concentration at 0.5 h [3] of 14 ng/mL and a concentration at 1 h (female, beagle, dog, plasma, po, 20 mg, Group 3, oral capsule, 20 mg BHV-3500 in 25 mg DDM, 1 h post-dose, average, read-out: BHV-3500 Concentration in Dog Plasma) of 3.56 ng/mL. It also gave a concentration at 1 h (female, beagle, dog, plasma, po, 20 mg, Group 3, oral capsule, 20 mg BHV-3500 in 25 mg DDM, 1 h post-dose, individual dogs, read-out: BHV-3500 Concentration in Dog Plasma) of 3.56 ng/mL, a concentration at 2 h (female, beagle, dog, plasma, po, 20 mg, Group 3, oral capsule, 20 mg BHV-3500 in 25 mg DDM, 2 h post-dose, average, read-out: BHV-3500 Concentration in Dog Plasma) of 18.9 ng/mL and a concentration at 4 h (female, beagle, dog, plasma, po, 20 mg, Group 3, oral capsule, 20 mg BHV-3500 in 25 mg DDM, 4 h post-dose, average, read-out: BHV-3500 Concentration in Dog Plasma) of 2.18 ng/mL. It also gave a concentration at 4 h (female, beagle, dog, plasma, po, 20 mg, Group 3, oral capsule, 20 mg BHV-3500 in 25 mg DDM, 4 h post-dose, individual dogs, read-out: BHV-3500 Concentration in Dog Plasma) of 2.18 ng/mL, an AUC(0-t) [2] of 48.1 ng·h/mL and a Cmax (female, beagle, dog, plasma, po, 20 mg, Group 3, oral capsule, 20 mg BHV-3500 in 25 mg DDM, average, read-out: Cmax) of 17.3 ng/mL. For the same molecule, the AUC(0-t) [3] was 48.1 ng·h/mL.
